According to patent US6743413B1, “Suspension aerosol formulations” (3M Company, priority 1991, dated 2004):
Several values for one entry are separate records, joined by “and”; a condition that tells them apart may be missing. Equal entries are not always repeated.

Experiments:
Assay type in all cases: physicochemical
[1] = Visual observation of suspension aerosol formulations (dispersion, flocculation, settling, creaming, suitability for metered dose inhaler); conditions: Example 3: 1:1 (W/W) HFC 134a/HFC 227 versus corresponding formulations in HFC 134a alone
Experimental: (§1) For each of the micronized drug substances A-G set forth below, formulations were prepared at drug concentrations of 0.017 percent, 0.039 percent, 0.083 percent, 0.41 percent, and 1.6 percent by weight based on the total weight of the formulation (corresponding to 0.20 mg/mL, 0.50 mg/mL, 1.0 mg/mL, 5.0 mg/Ml, and 20 mg/mL, respectively). The formulations were prepared by dispersing micronized drug in HFC 134a in a sealed 15 mL clear PET vial using ultrasonic energy.
For each propellant mix the range of drug concentrations used in Example 1 was used.
BDP formulations were prepared at 0.070 percent by weight (1.0 mg/mL) in HFC 227 and at 0.38 percent by weight (5.0 mg/mL) in a 1:1 mixture of HFC 227 and HFC 134a.
Formulations of salmeterol free base at 0.02 percent by weight and 0.05 percent by weight were prepared in HFC 134a and in HFC 227 by placing the drug and 5 mL of glass beads into a 15 mL glass vial, crimping on a continuous valve, and adding the appropriate amount of propellant. The formulations were shaken on a paint shaker for 10 min in order to disperse the drug.
The vial was then shaken on a paint shaker, chilled, and the contents transferred to 10 mL vials fitted with the metered dose valve. […] Valve delivery was measured through the life of the formulations.

[2] = Suspension aerosol particle size analysis (Malvern Mastersizer, laser diffraction); conditions: Example 7: 0.02 percent by weight in HFC 134a
Experimental: The particle size distribution of drug in the aerosol suspension is assayed by Malvern Mastersizer™ Particle Size Analyser using a suspending medium of 0.01 percent sorbitan trioleate in heptane.
Using a primed connector, shots are fired via an injection adapter into the Malvern sample cell containing the suspending medium. When a suitable level of obscuration (in the range 8.5-9) is achieved, analysis by laser diffraction is then performed.
The results below show the percentage by weight of particles having particle size below 10.7 μm, below 5.07 μm, and below 1.95 μm. The “Initial” entries represent the average of three independent determinations, and the “25° C.”, “CYC”, and “HHC” entries represent a single determination after one month under the indicated storage conditions.

[3] = Twin stage impinger deposition of emitted dose; conditions: Example 7: 0.02 percent by weight in HFC 134a
Description: Glass impinger apparatus A (BP198 Appendix XV11C) is used. To determine the deposition of the emitted dose, the apparatus is assembled as described. The oral adapter is attached to the throatpiece of the apparatus, and a suitable pump is connected to the outlet of the apparatus. The air flow through the apparatus is 60 ±5 liters per minute measured at the inlet of the throat. […] Ten shots are then fired via the adapter into the apparatus from the canister.
The apparatus is then dismantled and each stage washed with the appropriate amount of methanol. The washings are assayed by HPLC to give the content of the drug found at each stage and also the material balance.

[4] = Visual assessment of suspension formulations by time lapse photography 10 and 30 seconds after agitation; parameters: key: + = visually acceptable formulation; − = visually unacceptable formulation; ? = border line acceptable formulation; conditions: 10 and 30 seconds post agitation
[5] = as above; parameters: key: + = visually acceptable formulation; − = visually unacceptable formulation; ? = border line acceptable formulation
Experimental: as §1
Using time lapse photography 10 and 30 seconds after agitation the formulations were assessed as follows: […]
The formulations were photographed using time lapse photography at 10 and 30 seconds post agitation and were assessed as follows: […]

[6] = 1 Month CYC (cycled between 15° C. and 37° C.)
[7] = 1 Month HHC (approximately 40° C. and 85 percent relative humidity)
[8] = Initial (average of three determinations)

In the case of COc1ccc(C[C@@H](C)NC[C@H](O)c2ccc(O)c(NC=O)c2)cc1.COc1ccc(C[C@@H](C)NC[C@H](O)c2ccc(O)c(NC=O)c2)cc1.O=C(O)/C=C/C(=O)O [Formoterol fumarate], the “flocculation and sedimentation rate” value [1] was “reduced flocculation and a slower sedimentation rate”, the “particles with particle size <1.95 μm” value [2, 6] was 36.1 Percent by weight and 32.5 Percent by weight and the “particles with particle size <5.07 μm” value [2, 6] was 92.9 Percent by weight and 92.5 Percent by weight. For the same compound, the “particles with particle size <10.7 μm” value [2, 6] was 99.8 Percent by weight, the “particles with particle size <1.95 μm” value [2, 7] was 33.5 Percent by weight and 34.9 Percent by weight and the “particles with particle size <5.07 μm” value [2, 7] was 93.1 Percent by weight and 92.4 Percent by weight. The “particles with particle size <10.7 μm” value [2, 7] was 99.8 Percent by weight and 99.7 Percent by weight, the “particles with particle size <1.95 μm” value ([2]; 1 Month stored at 25° C.) was 36.3 Percent by weight and 31.7 Percent by weight and the “particles with particle size <5.07 μm” value ([2]; 1 Month stored at 25° C.) was 93.6 Percent by weight and 94.8 Percent by weight. The “particles with particle size <10.7 μm” value ([2]; 1 Month stored at 25° C.) was 99.8 Percent by weight and 99.9 Percent by weight, the “particles with particle size <1.95 μm” value [2, 8] was 32.2 Percent by weight and 30.5 Percent by weight and the “particles with particle size <5.07 μm” value [2, 8] was 93.4 Percent by weight and 92.6 Percent by weight. For the same compound, the “particles with particle size <10.7 μm” value [2, 8] was 99.6 Percent by weight and 98.0 Percent by weight, the “% Stem/Adapter” value ([3]; 1 Month (25° C.)) was 52.0% and 52.5% and the “%Stage 1” value ([3]; 1 Month (25° C.)) was 16.7% and 23.9%. For the same compound, the “%Stage 2” value ([3]; 1 Month (25° C.)) was 31.3% and 23.6%, the “% Stem/Adapter” value ([3]; 1 Month (CYC)) was 16.8% and 24.6% and the “%Stage 1” value ([3]; 1 Month (CYC)) was 53.6% and 47.6%. The “%Stage 2” value ([3]; 1 Month (CYC)) was 29.7% and 27.8%, the “%Stage 1” value ([3]; 1 Month (HHC)) was 37.0% and 60.4% and the “%Stage 2” value ([3]; 1 Month (HHC)) was 29.0% and 24.3%. The “% Stem/Adapter” value ([3]; Initial) was 26.0% and 24.7% and 28.5%, the “%Stage 1” value ([3]; Initial) was 37.5% and 35.3% and 36.7% and the “%Stage 2” value ([3]; Initial) was 36.5% and 40.0% and 34.8%. The “Assessment (visual)” value ([4]; Example 3: drug concentration 0.015 % in 1:1 HFC 134a/HFC 227) was “+”, the “Assessment (visual)” value ([4]; Example 3: drug concentration 0.038 % in 1:1 HFC 134a/HFC 227) was “+” and the “Assessment (visual)” value ([4]; Example 3: drug concentration 0.076 % in 1:1 HFC 134a/HFC 227) was “?”. The “Assessment (visual)” value ([4]; Example 3: drug concentration 0.38 % in 1:1 HFC 134a/HFC 227) was “?”, the “Assessment (visual)” value ([4]; Example 3: drug concentration 1.5 % in 1:1 HFC 134a/HFC 227) was “+” and the “visual assessment of formulation” value ([5]; Example 1: drug concentration 0.017 % in HFC 134a alone) was “+”. The “visual assessment of formulation” value ([5]; Example 1: drug concentration 0.039 % in HFC 134a alone) was “?”, the “visual assessment of formulation” value ([5]; Example 1: drug concentration 0.083 % in HFC 134a alone) was “?” and the “visual assessment of formulation” value ([5]; Example 1: drug concentration 0.41 % in HFC 134a alone) was “−”. The “visual assessment of formulation” value ([5]; Example 1: drug concentration 1.63 % in HFC 134a alone) was “+”.
